# Source: the OligoGym collection
# HELM strings list units from the 5' end as sugar, base in round brackets, then linkage (d deoxyribose, r ribose, m 2'-O-methyl, p phosphodiester). Strings are as the collection lists them; they lack the last nucleoside at the 3' end of the tested compound. [moe] = 2'-O-(2-methoxyethyl) (MOE); [sp] = phosphorothioate linkage; [m5C] = 5-methylcytosine
# Biological target: SCN2A
# Assay: mouse, dose not given
# Settings: ASO
substance,measurement,value
RNA1{[moe](G)[sp].[moe]([m5C])p.[moe](A)p.[moe](T)p.d(A)[sp].d(A)[sp].d(T)[sp].d([m5C])[sp].d([m5C])[sp].d([m5C])[sp].d(A)[sp].d(T)[sp].d(T)[sp].d(A)[sp].[moe](T)p.[moe](A)p.[moe]([m5C])p.[moe](A)[sp].[moe](A)}$$$$ (last 3' nucleoside missing),3 h FOB score,0 score 0-7
RNA1{[moe](T)[sp].[moe](A)p.[moe](A)p.[moe](T)p.d([m5C])[sp].d(A)[sp].d([m5C])[sp].d(T)[sp].d(T)[sp].d(T)[sp].d([m5C])[sp].d(A)[sp].d(T)[sp].d([m5C])[sp].[moe]([m5C])p.[moe](A)p.[moe]([m5C])p.[moe](G)[sp].[moe](A)}$$$$ (last 3' nucleoside missing),3 h FOB score,0 score 0-7
RNA1{[moe](A)[sp].[moe](G)p.[moe]([m5C])p.[moe](A)p.[moe](T)p.d(G)[sp].d(T)[sp].d(T)[sp].d(T)[sp].d(A)[sp].d(T)[sp].d([m5C])[sp].d(T)[sp].d(T)[sp].d(A)[sp].[moe](G)p.[moe](T)p.[moe](T)[sp].[moe]([m5C])}$$$$ (last 3' nucleoside missing),3 h FOB score,0 score 0-7
RNA1{[moe](T)[sp].[moe]([m5C])p.[moe]([m5C])p.[moe](A)p.d([m5C])[sp].d(G)[sp].d(A)[sp].d([m5C])[sp].d(A)[sp].d(T)[sp].d(A)[sp].d(T)[sp].d(T)[sp].d(T)[sp].[moe](T)p.[moe](T)p.[moe]([m5C])p.[moe](T)[sp].[moe](A)}$$$$ (last 3' nucleoside missing),3 h FOB score,0 score 0-7
RNA1{[moe](T)[sp].[moe]([m5C])p.[moe](A)p.[moe](T)p.d(G)[sp].d([m5C])[sp].d(A)[sp].d(T)[sp].d(A)[sp].d(A)[sp].d(T)[sp].d([m5C])[sp].d([m5C])[sp].d([m5C])[sp].[moe](A)p.[moe](T)p.[moe](T)p.[moe](A)[sp].[moe](T)}$$$$ (last 3' nucleoside missing),3 h FOB score,0 score 0-7
RNA1{[moe](T)[sp].[moe](G)p.[moe]([m5C])p.[moe](A)p.[moe](T)p.[moe](G)p.d(T)[sp].d(A)[sp].d(A)[sp].d([m5C])[sp].d([m5C])[sp].d(T)[sp].d(T)[sp].d(T)[sp].d(A)[sp].d(T)[sp].[moe](A)p.[moe]([m5C])[sp].[moe](A)}$$$$ (last 3' nucleoside missing),3 h FOB score,0 score 0-7
RNA1{[moe](A)[sp].[moe](G)p.[moe]([m5C])p.[moe](A)p.d(T)[sp].d(G)[sp].d(T)[sp].d(T)[sp].d(T)[sp].d(A)[sp].d(T)[sp].d([m5C])[sp].d(T)[sp].d(T)[sp].[moe](A)p.[moe](G)p.[moe](T)p.[moe](T)[sp].[moe]([m5C])}$$$$ (last 3' nucleoside missing),3 h FOB score,0 score 0-7
RNA1{[moe](T)[sp].[moe](G)p.[moe](G)p.[moe](A)p.[moe]([m5C])p.[moe]([m5C])p.d(G)[sp].d(T)[sp].d([m5C])[sp].d(T)[sp].d([m5C])[sp].d(T)[sp].d(T)[sp].d(T)[sp].d([m5C])[sp].d(T)[sp].[moe](T)p.[moe](A)[sp].[moe](T)}$$$$ (last 3' nucleoside missing),3 h FOB score,0 score 0-7
RNA1{[moe](A)[sp].[moe](A)p.[moe](T)p.[moe](T)p.[moe]([m5C])p.d(T)[sp].d(A)[sp].d(T)[sp].d(T)[sp].d(T)[sp].d(T)[sp].d(A)[sp].d(T)[sp].d(A)[sp].d(A)[sp].[moe](A)p.[moe](T)p.[moe](G)[sp].[moe]([m5C])}$$$$ (last 3' nucleoside missing),3 h FOB score,0 score 0-7
RNA1{[moe](G)[sp].[moe]([m5C])p.[moe](A)p.[moe](T)[sp].d(G)[sp].d(T)[sp].d(A)[sp].d(A)[sp].d([m5C])[sp].d([m5C])[sp].d(T)[sp].d(T)[sp].[moe](T)p.[moe](A)p.[moe](T)p.[moe](A)[sp].[moe]([m5C])}$$$$ (last 3' nucleoside missing),3 h FOB score,0 score 0-7
RNA1{[moe](A)[sp].[moe](T)p.[moe]([m5C])p.[moe](A)p.[moe](T)p.d(G)[sp].d([m5C])[sp].d(A)[sp].d(T)[sp].d(A)[sp].d(A)[sp].d(T)[sp].d([m5C])[sp].d([m5C])[sp].d([m5C])[sp].[moe](A)p.[moe](T)p.[moe](T)[sp].[moe](A)}$$$$ (last 3' nucleoside missing),3 h FOB score,0 score 0-7
RNA1{[moe](G)[sp].[moe](G)p.[moe](A)p.[moe]([m5C])p.d([m5C])[sp].d(G)[sp].d(T)[sp].d([m5C])[sp].d(T)[sp].d([m5C])[sp].d(T)[sp].d(T)[sp].d(T)[sp].d([m5C])[sp].[moe](T)p.[moe](T)p.[moe](A)p.[moe](T)[sp].[moe](T)}$$$$ (last 3' nucleoside missing),3 h FOB score,1 score 0-7
RNA1{[moe](T)[sp].[moe]([m5C])p.[moe](T)p.[moe](G)p.[moe]([m5C])p.[moe](A)[sp].d(T)[sp].d(G)[sp].d(T)[sp].d(A)[sp].d(A)[sp].d([m5C])[sp].d([m5C])[sp].d(T)[sp].[moe](T)p.[moe](T)[sp].[moe](A)}$$$$ (last 3' nucleoside missing),3 h FOB score,0.33 score 0-7
RNA1{[moe](A)[sp].[moe](T)p.[moe](T)p.[moe]([m5C])p.d(T)[sp].d(A)[sp].d(T)[sp].d(T)[sp].d(T)[sp].d(T)[sp].d(A)[sp].d(T)[sp].d(A)[sp].d(A)[sp].[moe](A)p.[moe](T)p.[moe](G)p.[moe]([m5C])[sp].[moe]([m5C])}$$$$ (last 3' nucleoside missing),3 h FOB score,2.67 score 0-7
RNA1{[moe]([m5C])[sp].[moe](A)p.[moe]([m5C])p.[moe](G)p.d([m5C])[sp].d(T)[sp].d(T)[sp].d(A)[sp].d([m5C])[sp].d(A)[sp].d(T)[sp].d([m5C])[sp].d(A)[sp].d(A)[sp].[moe](A)p.[moe]([m5C])p.[moe](A)p.[moe](T)[sp].[moe]([m5C])}$$$$ (last 3' nucleoside missing),3 h FOB score,0 score 0-7
RNA1{[moe](G)[sp].[moe](A)p.[moe]([m5C])p.[moe]([m5C])p.d(G)[sp].d(A)[sp].d(A)[sp].d(T)[sp].d(T)[sp].d([m5C])[sp].d(T)[sp].d(A)[sp].d(T)[sp].d(T)[sp].[moe](T)p.[moe](T)p.[moe](A)p.[moe](T)[sp].[moe](A)}$$$$ (last 3' nucleoside missing),3 h FOB score,0 score 0-7
RNA1{[moe](G)[sp].[moe]([m5C])p.[moe](A)p.[moe](T)p.[moe](G)p.[moe](T)p.d(A)[sp].d(A)[sp].d([m5C])[sp].d([m5C])[sp].d(T)[sp].d(T)[sp].d(T)[sp].d(A)[sp].d(T)[sp].d(A)[sp].[moe]([m5C])p.[moe](A)[sp].[moe](T)}$$$$ (last 3' nucleoside missing),3 h FOB score,0 score 0-7
RNA1{[moe](T)[sp].[moe](G)p.[moe]([m5C])p.[moe](A)p.[moe](T)p.[moe](G)[sp].d(T)[sp].d(A)[sp].d(A)[sp].d([m5C])[sp].d([m5C])[sp].d(T)[sp].d(T)[sp].d(T)[sp].[moe](A)p.[moe](T)[sp].[moe](A)}$$$$ (last 3' nucleoside missing),3 h FOB score,0 score 0-7
RNA1{[moe](T)[sp].[moe](G)p.[moe](A)p.[moe]([m5C])p.[moe]([m5C])p.[moe](A)p.d([m5C])[sp].d(G)[sp].d([m5C])[sp].d(T)[sp].d(T)[sp].d(A)[sp].d([m5C])[sp].d(A)[sp].d(T)[sp].d([m5C])[sp].[moe](A)p.[moe](A)[sp].[moe](A)}$$$$ (last 3' nucleoside missing),3 h FOB score,1 score 0-7
RNA1{[moe](T)[sp].[moe](G)p.[moe]([m5C])p.[moe](A)p.[moe](T)[sp].d(G)[sp].d(T)[sp].d(A)[sp].d(A)[sp].d([m5C])[sp].d([m5C])[sp].d(T)[sp].d(T)[sp].[moe](T)p.[moe](A)p.[moe](T)[sp].[moe](A)}$$$$ (last 3' nucleoside missing),3 h FOB score,0 score 0-7
RNA1{[moe](G)[sp].[moe](T)p.[moe]([m5C])p.[moe](T)p.d([m5C])[sp].d(T)[sp].d(T)[sp].d(T)[sp].d([m5C])[sp].d(T)[sp].d(T)[sp].d(A)[sp].d(T)[sp].d(T)[sp].[moe](T)p.[moe]([m5C])p.[moe](T)p.[moe](G)[sp].[moe](T)}$$$$ (last 3' nucleoside missing),3 h FOB score,0 score 0-7
RNA1{[moe](T)[sp].[moe]([m5C])p.[moe](A)p.[moe](G)p.[moe]([m5C])p.[moe](A)p.d(T)[sp].d(G)[sp].d(T)[sp].d(T)[sp].d(T)[sp].d(A)[sp].d(T)[sp].d([m5C])[sp].d(T)[sp].d(T)[sp].[moe](A)p.[moe](G)[sp].[moe](T)}$$$$ (last 3' nucleoside missing),3 h FOB score,0 score 0-7
RNA1{[moe]([m5C])[sp].[moe](G)p.[moe](T)p.[moe]([m5C])p.[moe](T)p.d([m5C])[sp].d(T)[sp].d(T)[sp].d(T)[sp].d([m5C])[sp].d(T)[sp].d(T)[sp].d(A)[sp].d(T)[sp].d(T)[sp].[moe](T)p.[moe]([m5C])p.[moe](T)[sp].[moe](G)}$$$$ (last 3' nucleoside missing),3 h FOB score,1 score 0-7
RNA1{[moe](T)[sp].[moe](A)p.[moe](T)p.[moe](T)p.d(T)[sp].d(T)[sp].d(A)[sp].d(T)[sp].d(A)[sp].d(A)[sp].d(A)[sp].d(T)[sp].d(G)[sp].d([m5C])[sp].[moe]([m5C])p.[moe](G)p.[moe](A)p.[moe]([m5C])[sp].[moe](T)}$$$$ (last 3' nucleoside missing),3 h FOB score,2.67 score 0-7
RNA1{[moe]([m5C])[sp].[moe](A)p.[moe](T)p.[moe](G)p.[moe](T)p.[moe](A)p.d(A)[sp].d(T)[sp].d([m5C])[sp].d(A)[sp].d([m5C])[sp].d(T)[sp].d(T)[sp].d(T)[sp].d([m5C])[sp].d(A)[sp].[moe](T)p.[moe]([m5C])[sp].[moe]([m5C])}$$$$ (last 3' nucleoside missing),3 h FOB score,0 score 0-7
RNA1{[moe](A)[sp].[moe](T)p.[moe](T)p.[moe]([m5C])p.[moe](T)p.d(A)[sp].d(T)[sp].d(T)[sp].d(T)[sp].d(T)[sp].d(A)[sp].d(T)[sp].d(A)[sp].d(A)[sp].d(A)[sp].[moe](T)p.[moe](G)p.[moe]([m5C])[sp].[moe]([m5C])}$$$$ (last 3' nucleoside missing),3 h FOB score,1 score 0-7
